From patent publication EP4680608B1, “2,6-DIHYDRO-7H-PYRAZOLO[3,4-C]PYRIDIN-7-ONE DERIVATIVES AS ANTI-MALARIAL AGENTS” (MMV Medicines for Malaria Venture, priority 2024, dated 2025)

What was measured:
[1] = biological target: T1, P. falciparum DHODH (Plasmodium falciparum, UniProt Q08210); experiment: DHODH inhibition, steady-state DCIP assay (PfDHODH); assay type: biochemical; conditions: recombinant PfDHODH, DCIP method, 25°C, 5 nM enzyme
T1 construct: His6 (N); made in house; host or cells: E. coli BL21-DE3 (phage-resistant)
Method: (§1) Compound stocks were prepared at 10-100 mM in DMSO, and diluted working stocks in DMSO were generated as appropriate. Compounds were plated from DMSO stocks in 96 well plate format using a Tecan D300e digital dispenser to generate a 3-fold dilution series over a concentration range of 0.0003 -100 µM (or 30 µM), yielding a final DMSO concentration of 1% in the assay. The top concentration used in the dose response was determined by the initial DMSO stock concentrations:100 µM for 100 mM stocks, and 30 µM for 10 mM stocks. Triplicate rate data were collected at each inhibitor concentration. Inhibitory IC50 values were determined by fitting the data to log (inhibitor) vs response equation Y = bottom + (top - bottom)/(1 + 10A ((X - Log IC50))) in GraphPad Prism.

[2] = test system: P. falciparum 3D7; experiment: Asexual blood-stage growth inhibition assay, SYBR green method; assay type: cell-based; conditions: Plasmodium falciparum, 3D7, 72 h, ring-stage 3D7 parasites
Method: Asexual blood-stage EC50 assays. […] Compound stocks prepared in DMSO were plated using a Tecan D300e automated low volume liquid handler. Ring-stage 3D7 or Dd2 parasites (60 µL cells) (2% hematocrit, 0.5% parasitemia, final DMSO concentration 0.5%) were added to plates, incubated with compounds over a range of concentrations in technical triplicate for 72 h at 37 °C, 5% CO2, and then frozen (-80°C) overnight before analysis. […] Data were analyzed by non-linear regression using GraphPad Prism to determine the EC50 by fitting to the built-in equation (log(inhibitor) vs response-variable slope with four parameters).

[3] = biological target: P. vivax DHODH (Plasmodium vivax, UniProt A5K1N1); experiment: DHODH inhibition, steady-state DCIP assay (PvDHODH); assay type: biochemical; conditions: recombinant PvDHODH, DCIP method, 25°C, 5 nM enzyme; read-out: P. vivax DHODH (IC50)
Text: (§2) DOI: 10.1074/jbc.M206854200).
(§3) Proteins were expressed and purified on a Pharmacia FPLC using HisTrap HP column chromatography followed by gel filtration chromatography on a Pharmacia HiLoad 16/600 Superdex 200 column, and protein concentration determined based on OD280 using the previously described extinction coefficients (Kokkonda et al., 2020, J Med Chem, 63 (9), 4929-4956. DOI: 10.1021/acs.jmedchem.0c00311). Purified proteins were >95% pure based on SDS-PAGE analysis.
(§4) DHODH activity was monitored in a steady-state assay using the 2,6-dichloroindophenol (DCIP) method at 25°C in assay buffer (100 mM HEPES, pH 8.0, 150 mM NaCl, 1% glycerol, 0.1% Triton X-100 reduced) plus substrates 20 µM CoQD, 200 µM DHO, 120 µM DCIP, and 5 nM enzyme as previously described (Malmquist et al, 2008, Biochemistry, 47 (8), 2466-2475. DOI: 10.1021/bi702218c).
as §1, with “Prism. DSM265 ^2 was plated as an assay control in all studies.” for “Prism.”

[4] = biological target: T2, Human DHODH (Homo sapiens, UniProt Q02127); experiment: DHODH inhibition, steady-state DCIP assay (human DHODH); assay type: biochemical; conditions: recombinant HsDHODH, DCIP method, 25°C, 5 nM enzyme; top concentration 100 µM or 30 µM
T2 construct: C-terminal His6-tagged HsDHODH residues 29-395 in pET-22b (start ^29MATGDE); His6 (C); made in house; host or cells: E. coli BL21-DE3 (phage-resistant)
Text: as §2, §3, §4
as §1, with “Prism. DSM265 ^2 was plated as an assay control in all studies.” for “Prism.”

P. vivax DHODH, sequence (A5K1N1 entry or part of it): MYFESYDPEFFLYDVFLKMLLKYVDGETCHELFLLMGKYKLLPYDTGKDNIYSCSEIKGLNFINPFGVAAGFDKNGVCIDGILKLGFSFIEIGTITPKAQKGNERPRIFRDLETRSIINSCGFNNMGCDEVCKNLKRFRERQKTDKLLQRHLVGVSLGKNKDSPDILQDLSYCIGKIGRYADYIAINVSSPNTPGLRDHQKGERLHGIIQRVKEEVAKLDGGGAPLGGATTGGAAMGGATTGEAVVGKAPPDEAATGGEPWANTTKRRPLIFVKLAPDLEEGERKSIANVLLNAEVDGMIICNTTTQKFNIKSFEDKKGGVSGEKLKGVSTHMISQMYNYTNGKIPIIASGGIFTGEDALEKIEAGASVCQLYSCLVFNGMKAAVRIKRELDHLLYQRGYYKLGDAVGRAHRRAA
T2 sequence (Q02127 29-395): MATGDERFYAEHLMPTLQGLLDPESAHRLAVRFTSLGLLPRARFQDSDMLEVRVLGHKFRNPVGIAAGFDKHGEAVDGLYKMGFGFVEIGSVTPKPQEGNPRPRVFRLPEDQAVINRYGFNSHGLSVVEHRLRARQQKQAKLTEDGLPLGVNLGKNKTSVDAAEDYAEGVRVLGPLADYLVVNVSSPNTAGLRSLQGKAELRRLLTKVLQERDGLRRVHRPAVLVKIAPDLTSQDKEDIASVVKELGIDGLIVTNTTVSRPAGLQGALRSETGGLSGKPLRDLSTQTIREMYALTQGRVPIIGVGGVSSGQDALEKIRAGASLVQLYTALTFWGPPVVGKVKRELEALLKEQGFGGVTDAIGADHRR
T1 sequence (Q08210 158-569): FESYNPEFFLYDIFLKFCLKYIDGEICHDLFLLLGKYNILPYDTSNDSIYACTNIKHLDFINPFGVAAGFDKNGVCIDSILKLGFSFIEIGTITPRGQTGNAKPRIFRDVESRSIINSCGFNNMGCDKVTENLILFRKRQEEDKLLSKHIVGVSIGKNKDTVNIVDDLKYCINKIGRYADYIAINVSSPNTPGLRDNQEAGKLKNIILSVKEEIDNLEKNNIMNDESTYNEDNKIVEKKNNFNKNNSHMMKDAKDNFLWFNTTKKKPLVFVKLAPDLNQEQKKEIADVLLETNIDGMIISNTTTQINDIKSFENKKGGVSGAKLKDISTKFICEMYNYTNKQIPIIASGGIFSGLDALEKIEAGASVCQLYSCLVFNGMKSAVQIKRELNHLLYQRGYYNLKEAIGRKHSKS

Row | SMILES | IC50 [1] | EC50 [2] | IC50 [3] | IC50 [4]
1 | CCC(O)(c1cnc(C(F)(F)F)c(Cl)c1)c1c2cc(C)n(C3CC3)c(=O)c2nn1C (stereo not drawn) [1-7, 3-(1-(5-chloro-6-(trifluoromethyl)pyridin-3-yl)-1-hydroxypropyl)-6-cyclopropyl-2,5-dimethyl-2,6-dihydro-7H-pyrazolo[3,4-c]pyridin-7-one] | 60 nM | 6.5 nM | 26 nM | 14000 nM
2 | Cn1nc2c(=O)n(C3CC3)ccc2c1[C@](N)(c1ccc(C(F)(F)F)c(Cl)c1)C(F)(F)F (single isomer, unassigned) [5-49] | 3.9 nM | 0.64 nM | 4.2 nM | 9000 nM
3 | CCn1ccc2c([C@](O)(c3ccc(C(F)(F)F)nc3)C(C)C)n(C)nc2c1=O (single isomer, unassigned) [1-48] | 81 nM | 18 nM | 44 nM | > 100000 nM
4 | CC[C@@](N)(c1ccc(F)c(Cl)c1)c1c2ncn(C3CC3)c(=O)c2nn1C (single isomer, unassigned) [4-22] | 23 nM | 4.1 nM | 20 nM | 4600 nM
5 | Cn1nc2c(=O)n(C3CC3)ccc2c1[C@](O)(c1ccc(F)c(Cl)c1)C1CC1 (single isomer, unassigned) [1-18] | 12 nM | 9 nM | 11 nM | 22000 nM
6 | CC[C@@](O)(c1cnc(C(F)(F)F)c(Cl)c1)c1c2ccn(C3CC3)c(=O)c2nn1C (single isomer, unassigned) [1-14] | 14 nM | 0.64 nM | 18 nM | 4200 nM
7 | CC[C@@](N)(c1cnc(C(F)(F)F)c(Cl)c1)c1c2ccn(C3CC3)c(=O)c2nn1C (single isomer, unassigned) [4-11] | 42 nM | 2.6 nM | 41 nM | 13000 nM
8 | CC[C@@](O)(c1cnc(C(F)(F)F)c(Cl)c1)c1c2cnn(C3CC3)c(=O)c2nn1C1CC1 (single isomer, unassigned) [2-1] | 29 nM | 12 nM | 10 nM | 2300 nM
9 | Cn1nc2c(=O)n(C3CC3)cnc2c1[C@](O)(c1ccc(C(F)(F)F)c(Cl)c1)C(F)(F)F (single isomer, unassigned) [5-17] | 4.6 nM | 0.046 nM | 6.1 nM | 5600 nM
10 | Cn1nc2c(=O)n(C3CC3)cnc2c1[C@](C)(N)c1ccc(C(F)(F)F)c(Cl)c1 (single isomer, unassigned) [4-20] | 8.2 nM | 0.44 nM | 8.3 nM | 20000 nM
11 | Cn1nc2c(=O)n(C3CC3)ncc2c1[C@](O)(c1ccc(C(F)(F)F)c(Cl)c1)C(F)(F)F (single isomer, unassigned) [5-15] | 8.6 nM | 0.29 nM | 9.3 nM | 24000 nM
12 | Cn1nc2c(=O)n(C3CC3)ccc2c1[C@](O)(c1cnc(C(F)(F)F)c(Cl)c1)C1CC1 (single isomer, unassigned) [1-16] | 16 nM | 3.2 nM | 23 nM | > 30000 nM
13 | Cn1nc2c(=O)n(C3CC3)ccc2c1[C@](O)(c1ccc(C(F)(F)F)nc1)C1CC1 (single isomer, unassigned) [1-26] | 46 nM | 6.7 nM | 48 nM | > 30000 nM
14 | Cn1nc2c(=O)n(C3CC3)cnc2c1[C@](O)(c1cnc(C(F)(F)F)c(C#N)c1)C(F)(F)F (single isomer, unassigned) [5-52] | 62 nM | 11 nM | 46 nM | > 30000 nM
15 | Cn1nc2c(=O)n(C3CC3)cnc2c1[C@](O)(c1ccc(C(F)(F)F)nc1)C1CC1 (single isomer, unassigned) [3-9] | 48 nM | 12 nM | 59 nM | > 30000 nM
16 | CCn1ccc2c([C@](C)(O)c3cnc(C(F)(F)F)c(Cl)c3)n(C)nc2c1=O (single isomer, unassigned) [1-36] | 45 nM | 1.4 nM | 9.2 nM | > 100000 nM
17 | Cn1nc2c(=O)n(C3CC3)ccc2c1[C@](C)(N)c1ccc(C(F)(F)F)c(Cl)c1 (single isomer, unassigned) [4-4] | 12 nM | 0.61 nM | 9 nM | 15000 nM
18 | CCn1ncc2c([C@@](O)(CC)c3ccc(C(F)(F)F)c(Cl)c3)n(C)nc2c1=O (single isomer, unassigned) [2-19] | 6.9 nM | 0.35 nM | 2.9 nM | 11000 nM
19 | Cn1nc2c(=O)n(C3CC3)cnc2c1[C@](O)(c1cnc(C(F)(F)F)c(Cl)c1)C1CC1 (single isomer, unassigned) [3-3] | 22 nM | 4 nM | 8.3 nM | > 30000 nM
20 | Cn1nc2c(=O)n(C3CC3)ccc2c1[C@](O)(c1ccc(C(F)(F)F)c(C#N)c1)C1CC1 (single isomer, unassigned) [1-3] | 17 nM | 1.3 nM | 17 nM | > 30000 nM
21 | Cn1nc2c(=O)n(C3CC3)cnc2c1[C@](C)(O)c1cnc(C(F)(F)F)c(Cl)c1 (single isomer, unassigned) [3-1] | 21 nM | 2.2 nM | 7.9 nM | > 30000 nM
22 | CC[C@@](O)(c1ccc(C(F)(F)F)c(C#N)c1)c1c2cnn(C3CC3)c(=O)c2nn1C (single isomer, unassigned) [2-5] | 19 nM | 1.3 nM | 19 nM | 4800 nM
23 | Cn1nc2c(=O)n(C3CC3)ccc2c1[C@](O)(c1ccc(F)c(Cl)c1)C(F)(F)F (single isomer, unassigned) [5-9] | 14 nM | 0.52 nM | 9.8 nM | 9200 nM
24 | CCn1ccc2c([C@@](O)(CC)c3ccc(C(F)(F)F)nc3)n(C)nc2c1=O (single isomer, unassigned) [1-50] | 54 nM | 1.5 nM | 27 nM | 46000 nM
25 | CC(C)[C@@](O)(c1cnc(C(F)(F)F)c(Cl)c1)c1c2ccn(C3CC3)c(=O)c2nn1C (single isomer, unassigned) [1-1] | 46 nM | 16 nM | 40 nM | > 30000 nM
26 | CC[C@@](N)(c1ccc(C(F)(F)F)c(Cl)c1)c1c2ccn(C3CC3)c(=O)c2nn1C (single isomer, unassigned) [4-8] | 9.3 nM | 1.1 nM | 6.2 nM | 1000 nM
27 | Cn1nc2c(=O)n(C3CC3)ncc2c1[C@](O)(c1ccc(C(F)(F)F)c(C#N)c1)C1CC1 (single isomer, unassigned) [2-7] | 23 nM | 4.2 nM | 17 nM | > 30000 nM
28 | CCn1ccc2c([C@@](O)(CC)c3cnc(C(F)(F)F)c(Cl)c3)n(C)nc2c1=O (single isomer, unassigned) [1-42] | 13 nM | 0.49 nM | 7.9 nM | 41000 nM
29 | CCn1cc(F)c2c([C@@](O)(CC)c3ccc(C(F)(F)F)nc3)n(C)nc2c1=O (single isomer, unassigned) [1-24] | 24 nM | 1.2 nM | 33 nM | 6200 nM
30 | CC[C@@](O)(c1ccc(C(F)(F)F)c(Cl)c1)c1c2cnn(C3CC3)c(=O)c2nn1C (single isomer, unassigned) [2-15] | 6.2 nM | 0.32 nM | 9.8 nM | 1700 nM
